Measurements as given in patent publication US20020042079A1, “METHODS AND AGENTS FOR MEASURING AND CONTROLLING MULTIDRUG RESISTANCE” (priority 1994, published 2002).
Entries after “also recorded” stand apart in the source; their conditions may differ.

Assays:
MCF-7/ADR cells = assay: Organelle-specific pH measurements with targeted SNARF and FITC probes in living cells; type: cell-based, human
Method: Organelle-specific pH measurements: The pH was measured in selective cellular compartments by targeting ratiometric pH probes to specific organelles. […] Using a Nikon epifluorescence microscope with a intensified CCD camera, the pH probe FITC was excited alternately at 450 nm and 490 nm and emission recorded with a 520/10 bandpass filter. […] In short, to calibrate the pH for the endosomal system, the chamber was perfused with 150 mM sodium buffers at pH of 5, 6 or 7 containing of monensin (20 μM) and nigericin (10 μM) for 5 minutes before recording the fluorescence. For the pH calibrations of cytosol and nucleoplasm, the cells were incubated in 140 mM potassium buffers at pH 6.0, 6.5, 7.0 and 7.5 containing nigericin (20 μM).
After endocytosis, the transferrin is transported through the endosomes and then recycled back to the surface without passage through the lysosomes.
pH in the lysosomes: The pH in the lysosomes was assayed both with light and electron microscopy. […] The pH was calibrated as described above. […] The cells were incubated one hour at room temperature, washed with several changes of PBS pH 7.4 containing 50 mM NH4Cl. […] The cells were embedded in LR White in gelatin capsules and baked at 60° C. for 24 hours in a vacuum oven, sectioned and incubated overnight at 4° C. with anti-DNP antibodies in 4% FBS, washed and incubated in gold (10 nm) labeled secondary antibodies for 2 hours. They were then stained and visualized under the electron microscope.
Cells were plated on polystyrene plates at 50% confluency. Twenty-four to thirty-six hours later, the medium was aspirated and the cells were covered with 50 μl of DME with SNARF-dextran (10 mg/ml). The cells were quickly scraped off the polystyrene and placed in pre-chilled tubes containing 1 ml DME without serum. The cells were harvested (100 g for 5 minutes), washed twice with pre-chilled DME, and plated on Lab-Tek chambers in DME with serum. The cells were allowed to recover for 24 hours prior to examination on a confocal microscope. The pH was calibrated from SNARF fluorescence as described above.
pH in the nucleus: The nucleoplasmic pH was probed by loading the cytosol with SNARF conjugated to a 10 kD dextran. This dextran is too large to cross cellular membranes, but can enter the nucleoplasm by diffusion across the nuclear pores. Confocal fluorescence microscopy was used to prepare optical sections through the cell allowing the fluorescence intensity of the nucleoplasm and cytoplasm to be quantified. The 10 kD SNARF-dextran was loaded into the cytosol and imaged using the same techniques for the 70 kD SNARF-dextrans (see above).

MCF-7adr cells = assay: Intravesicular pH with SNAFL-calcein; type: cell-based, human; details: monensin 10 μg/ml for 30 minutes
Excerpt: FIG. 6a-6c show Measurements of Intravesicular pH utilizing SNAFL-calcein. […] In contrast, significant pH gradients, including an acidic pericentriolar labeling is observed in MCF7adr cells (FIG. 6b). The intravesicular pH in drug-resistant MCF-7adr cells (white bars) is […] than the vesicular pH of the drug-sensitive parental MCF-7 (black bars) (FIG. 6c). This acidic pH difference is reduced by treatment of MCF-7adr cells with monensin (dark grey). Methods: The acetoxymethylester derivative of SNAFL-calcein (15 μg/ml) (a radiometric fluorescent probe for pH) was added to both MCF-7 and MCF-7adr cells. The ester linked fluorescent probe enters the cell passively where the esters are hydrolyzed by esterases located in the cytoplasm and intracellular vesicles. […] The cells were incubated at 37° C. for 45 minutes and then examined in with the Insight confocal fluorescence. […] To obtain a quantitative relationship between emission ratios and pH, each SNAFL-calcein stained cell line was exposed to a buffer at a known pH containing nigericin/high K^+ (18 μM/150 mM KCl). […] These values were then incorporated into a pH imaging routine that provides a direct read-out of pH values for individual intracellular compartments that are queried on the computer screen. […] (c) To prepare histograms of vesicular pH, 5 vesicles within a confocal section were analyzed/cell (20 cells per cell type). […]

CHO cells = assay: Acridine orange labeling of acidic compartments; type: cell-based, Chinese Hamster; details: 10 μM tamoxifen, thirty minutes
Method: Labeling of Cells with Acridine Orange: To examine intracellular acidic compartments, acridine orange (6 μM in medium from a 10 mM stock in water) was added directly to cells in the Lab-Tek chambers and the cells were incubated for 15 minutes. Cells in the presence of acridine orange were then examined utilizing an excitation at 488 nm and dual emission confocal images were simultaneously recorded using both a 530-30 band pass barrier filter (green fluorescence) and a 605 nm long pass barrier filter (red fluorescence). Optical sections of the fluorescent samples were recorded at 0.5 micron intervals with a 60×oil immersion objective.
CHO cells are often used for transfection studies with Pgp since endogenous levels of the protein are non-existent, or too low to be measured [Debenham et al., Mol. Cell Biol., 2:881-889 (1982)].

SMILES	shift of cytosolic pH, more alkaline (MCF-7/ADR cells; MCF-7/ADR cells, SNARF 70 kD dextran, Tamoxifen at 10 μM)	pH of acidic vesicular compartments after treatment (MCF-7adr cells)	change with Tamoxifen, pH Lysosomes SNARF-conjugated dextran (MCF-7/ADR cells; MCF-7/ADR)	change with Tamoxifen, pH Recycling endosomes FITC-conjugated transferrin (MCF-7/ADR cells; MCF-7/ADR)	change with Tamoxifen, pH lysosomes FITC conjugated dextran (MCF-7/ADR cells; MCF-7/ADR)	pH Cytosol (SNARF 70 kD dextran) (MCF-7/ADR cells; MCF-7/ADR + Tamoxifen (10 μM))	pH Lysosomes SNARF-conjugated dextran (MCF-7/ADR cells; MCF-7/ADR + Tamoxifen (10 μM))	pH Nucleus (SNARF 10 kD dextran) (MCF-7/ADR cells; MCF-7/ADR + Tamoxifen (10 μM))	pH Recycling endosomes FITC-conjugated transferrin (MCF-7/ADR cells; MCF-7/ADR + Tamoxifen (10 μM))	pH lysosomes FITC conjugated dextran (MCF-7/ADR cells; MCF-7/ADR + Tamoxifen (10 μM), FITC cannot discriminate pH above 6.6)	pH Recycling endosomes FITC-conjugated transferrin (MCF-7/ADR cells; MCF-7/ADR + Tamoxifen (10 μM), listed as tamoxifen)	red acridine orange fluorescence after Tamoxifen (CHO cells)
CC[C@@]1([C@@H]2O[C@@H]([C@H]3O[C@@](O)(CO)[C@H](C)C[C@@H]3C)C[C@@H]2C)CC[C@H]([C@]2(C)CC[C@]3(C[C@H](O)[C@@H](C)[C@@H]([C@@H](C)[C@@H](OC)[C@H](C)C(=O)O)O3)O2)O1 [Monensin]	0.2 units	alkalization of acidic vesicular compartments to pH values observed for drug sensitive MCF-7 cells										
CC/C(=C(\c1ccccc1)c1ccc(OCCN(C)C)cc1)c1ccccc1 [Tamoxifen]			>+1.1	+0.5	>+1.2	7.20 ± 0.1	7.1	7.20 ± 0.1	6.7 ± 0.2	> 6.6	6.7	substantially reduced the red acridine orange fluorescence; also recorded: loss of red-orange fluorescence from the cytoplasm of the CHO cells
